{
  "source": "patent US20210269848A1",
  "about": "“COMPOSITION OF MICROORGANISMS INDICATING DECONTAMINATION” (NOVOLYZE, priority 2018, published 2021)",
  "key": {"[1]": {"test_system": "A. pascens CNCM I-5181", "experiment": "Log loss after heat treatment on black pepper", "type": "cell-based", "details": "3% dye", "experimental": "(§1) “Log loss” refers to the difference between initial viability and viability at a given time.\n(§2) The test is performed for the following 3 strains: E. faecium ATCC 8459, P. agglomerans CNCM I-5055 and A. pascens CNCM I-5181\n(§3) Addition of 10% of pure lyophilisate of the strains to 5 g of maltodextrin. Vortexing for homogenization. […] Vortexing. Addition of 1% of the dyed strain mixture diluted 1/10 to 5 g of black pepper followed by a spray of wet fixing agent for good adhesion. Mixing with a sterile spatula. Drying 2 h. Deposition of 0.2 g in Eppendorf tubes then heat treatment of the tubes in a dry bath at 90 and 100° C. for 2, 5 and 10 minutes"}, "[2]": {"test_system": "P. agglomerans CNCM I-5055", "experiment": "Log loss after heat treatment on black pepper", "type": "cell-based", "details": "3% dye", "experimental": "as §1, §2, §3"}, "[3]": {"test_system": "E. faecium ATCC 8459", "experiment": "Log loss after heat treatment on black pepper", "type": "cell-based", "details": "3% dye", "experimental": "as §1, §2, §3"}, "[4]": {"test_system": "A. pascens CNCM I-5181", "experiment": "Log loss after heat treatment on nonfat dried milk NFDM", "type": "cell-based", "details": "3% dye", "experimental": "as §1\n(§4) The test is performed for the following 3 strains: E. faecium ATCC 8459, P. agglomerans CNCM I-5055 and A. pascens CNCM I-5181.\n(§5) Addition of 10% of pure lyophilisate of the strains to 5 g of maltodextrin. Vortexing for homogenization. […] Vortexing. Addition of 1% of the dyed strain mixture diluted 1/10 to 5 g NFDM. Vortexing. Deposition of 0.1 g in Eppendorf tubes then heat treatment of the tubes in a dry bath at 90 and 100° C. for 2, 5 and 10 minutes"}, "[5]": {"test_system": "P. agglomerans CNCM I-5055", "experiment": "Log loss after heat treatment on nonfat dried milk NFDM", "type": "cell-based", "details": "3% dye", "experimental": "as §1, §4, §5"}, "[6]": {"test_system": "E. faecium ATCC 8459", "experiment": "Log loss after heat treatment on nonfat dried milk NFDM", "type": "cell-based", "details": "3% dye", "experimental": "as §1, §4, §5"}, "[7]": {"test_system": "indicator microorganisms"}, "[8]": {"test_system": "Enterococcus faecium", "experiment": "Heat resistance (log loss) of E. faecium compositions with brilliant blue FCF at 100° C.", "type": "cell-based", "details": "3% dye", "experimental": "as §1\nMethod: The Enterococcus faecium strain in dry form was mixed with an inert support (maltodextrin) and with each dye individually. The subsequent mixture is placed in an Eppendorf tube in a dry bath at a temperature of 100° C. Samples were taken at 2, 5 and 10 min and cell counts were performed on TSA (Trypticase Soy Agar) medium for 24 h at 37° C.\nMust: addition of 3% of blue dye powder to 5 mL of fermentation must in a sterile jar. Vortexing for homogenization, distribution in tubes and heat treatment.\nPure: addition of 3% of dye to 5 g of pure lyophilisate in a sterile jar. Vortexing for homogenization, distribution in tubes and heat treatment.\nSupport: addition of 1% of pure lyophilisate to 5 g of maltodextrin in a sterile jar (1/100 dilution). Vortexing for homogenization, then addition of 3% of dye. Vortexing then distribution in tubes and heat treatment."}, "[9]": {"test_system": "A. pascens CNCM I-5181", "experiment": "Log loss after heat treatment on macadamia", "type": "cell-based", "details": "3% dye", "experimental": "as §1, §4\n(§6) Addition of 10% pure lyophilisate of the strains to 5 g of maltodextrin. Vortexing for homogenization. Addition of 3% of dye. Vortexing. Addition of 1% of the dyed strain mixture diluted 1/10 to 5 g of macadamia. Mixing with a sterile spatula. Drying 2 h. Deposition of 0.3 g in Eppendorf tubes then heat treatment of the tubes in a dry bath at 90 and 100° C. for 0, 2, 5, 10 minutes"}, "[10]": {"test_system": "P. agglomerans CNCM I-5055", "experiment": "Log loss after heat treatment on macadamia", "type": "cell-based", "details": "3% dye", "experimental": "as §1, §4, §6"}, "[11]": {"test_system": "E. faecium ATCC 8459", "experiment": "Log loss after heat treatment on macadamia", "type": "cell-based", "details": "3% dye", "experimental": "as §1, §4, §6"}},
  "data": [
    {"smiles": "CCN(Cc1cccc(S(=O)(=O)O)c1)c1ccc(C(=C2C=CC(=[N+](CC)Cc3cccc(S(=O)(=O)O)c3)C=C2)c2ccccc2S(=O)(=O)[O-])cc1", "note": "[brilliant blue FCF]", "values": [
      {"measurement": "Log loss at 90° C.", "setting": "[1]; 2 min", "value": 0.59},
      {"measurement": "Log loss at 100° C.", "setting": "[1]; 2 min", "value": 0.27},
      {"measurement": "Log loss at 90° C.", "setting": "[1]; 5 min", "value": 0.76},
      {"measurement": "Log loss at 100° C.", "setting": "[1]; 5 min", "value": 0.64},
      {"measurement": "Log loss at 90° C.", "setting": "[1]; 10 min", "value": 0.85},
      {"measurement": "Log loss at 100° C.", "setting": "[1]; 10 min", "value": 0.85},
      {"measurement": "Log loss at 90° C.", "setting": "[2]; 2 min", "value": 1.12},
      {"measurement": "Log loss at 100° C.", "setting": "[2]; 2 min", "value": 1.26},
      {"measurement": "Log loss at 90° C.", "setting": "[2]; 5 min", "value": 1.6},
      {"measurement": "Log loss at 100° C.", "setting": "[2]; 5 min", "value": 1.45},
      {"measurement": "Log loss at 90° C.", "setting": "[2]; 10 min", "value": 1.77},
      {"measurement": "Log loss at 100° C.", "setting": "[2]; 10 min", "value": 2.14},
      {"measurement": "Log loss at 90° C.", "setting": "[3]; 2 min", "value": 0.31},
      {"measurement": "Log loss at 100° C.", "setting": "[3]; 2 min", "value": 1.35},
      {"measurement": "Log loss at 90° C.", "setting": "[3]; 5 min", "value": 0.82},
      {"measurement": "Log loss at 100° C.", "setting": "[3]; 5 min", "value": 1.37},
      {"measurement": "Log loss at 90° C.", "setting": "[3]; 10 min", "value": 1.46},
      {"measurement": "Log loss at 100° C.", "setting": "[3]; 10 min", "value": 2.19},
      {"measurement": "Log loss at 90° C.", "setting": "[4]; 2 min", "value": 0.06},
      {"measurement": "Log loss at 100° C.", "setting": "[4]; 2 min", "value": 0.26},
      {"measurement": "Log loss at 90° C.", "setting": "[4]; 5 min", "value": 0.46},
      {"measurement": "Log loss at 100° C.", "setting": "[4]; 5 min", "value": 0.35},
      {"measurement": "Log loss at 90° C.", "setting": "[4]; 10 min", "value": 0.62},
      {"measurement": "Log loss at 100° C.", "setting": "[4]; 10 min", "value": 1.82},
      {"measurement": "Log loss at 90° C.", "setting": "[5]; 2 min", "value": 0.07},
      {"measurement": "Log loss at 100° C.", "setting": "[5]; 2 min", "value": 0.13},
      {"measurement": "Log loss at 90° C.", "setting": "[5]; 5 min", "value": 0.07},
      {"measurement": "Log loss at 100° C.", "setting": "[5]; 5 min", "value": 0.67},
      {"measurement": "Log loss at 90° C.", "setting": "[5]; 10 min", "value": 0.37},
      {"measurement": "Log loss at 100° C.", "setting": "[5]; 10 min", "value": 0.72},
      {"measurement": "Log loss at 90° C.", "setting": "[6]; 2 min", "value": 0.51},
      {"measurement": "Log loss at 100° C.", "setting": "[6]; 2 min", "value": 0.36},
      {"measurement": "Log loss at 90° C.", "setting": "[6]; 5 min", "value": 0.36},
      {"measurement": "Log loss at 100° C.", "setting": "[6]; 5 min", "value": 0.59},
      {"measurement": "Log loss at 90° C.", "setting": "[6]; 10 min", "value": 0.46},
      {"measurement": "Log loss at 100° C.", "setting": "[6]; 10 min", "value": 1.29},
      {"measurement": "effect on viability of the indicator microorganisms", "setting": "[7]", "value": "does not affect the viability of the indicator microorganisms"},
      {"measurement": "Log loss at 100° C.", "setting": "[8]; Must (fermentation must), 2 min", "value": 1.23},
      {"measurement": "Log loss at 100° C.", "setting": "[8]; Must (fermentation must), 5 min", "value": 1.44},
      {"measurement": "Log loss at 100° C.", "setting": "[8]; Must (fermentation must), 10 min", "value": 2.16},
      {"measurement": "Log loss at 100° C.", "setting": "[8]; Pure (lyophilisate without support), 2 min", "value": 0.02},
      {"measurement": "Log loss at 100° C.", "setting": "[8]; Pure (lyophilisate without support), 5 min", "value": 0.17},
      {"measurement": "Log loss at 100° C.", "setting": "[8]; Pure (lyophilisate without support), 10 min", "value": 0.50},
      {"measurement": "Log loss at 100° C.", "setting": "[8]; Support (maltodextrin), 2 min", "value": 0.13},
      {"measurement": "Log loss at 100° C.", "setting": "[8]; Support (maltodextrin), 5 min", "value": 0.94},
      {"measurement": "Log loss at 100° C.", "setting": "[8]; Support (maltodextrin), 10 min", "value": 1.97},
      {"measurement": "Log loss at 90° C.", "setting": "[9]; 2 min", "value": 0.25},
      {"measurement": "Log loss at 100° C.", "setting": "[9]; 2 min", "value": 0.05},
      {"measurement": "Log loss at 90° C.", "setting": "[9]; 5 min", "value": 0.18},
      {"measurement": "Log loss at 100° C.", "setting": "[9]; 5 min", "value": 0.12},
      {"measurement": "Log loss at 90° C.", "setting": "[9]; 10 min", "value": 0.38},
      {"measurement": "Log loss at 100° C.", "setting": "[9]; 10 min", "value": 0.6},
      {"measurement": "Log loss at 90° C.", "setting": "[10]; 2 min", "value": 0.3},
      {"measurement": "Log loss at 100° C.", "setting": "[10]; 2 min", "value": 0.14},
      {"measurement": "Log loss at 90° C.", "setting": "[10]; 5 min", "value": 0.6},
      {"measurement": "Log loss at 100° C.", "setting": "[10]; 5 min", "value": 0.15},
      {"measurement": "Log loss at 90° C.", "setting": "[10]; 10 min", "value": 0.14},
      {"measurement": "Log loss at 100° C.", "setting": "[10]; 10 min", "value": 1.36},
      {"measurement": "Log loss at 90° C.", "setting": "[11]; 2 min", "value": 0.2},
      {"measurement": "Log loss at 100° C.", "setting": "[11]; 2 min", "value": 0.24},
      {"measurement": "Log loss at 90° C.", "setting": "[11]; 5 min", "value": 0.53},
      {"measurement": "Log loss at 100° C.", "setting": "[11]; 5 min", "value": 0.47},
      {"measurement": "Log loss at 90° C.", "setting": "[11]; 10 min", "value": 1.2},
      {"measurement": "Log loss at 100° C.", "setting": "[11]; 10 min", "value": 1.24}
    ]}
  ]
}
